Results on 73 compounds are retold here after PubChem BioAssay AID504882 (Broad Institute, 2011).

Records with an inconclusive call do not appear. Active and inactive are the calls of the source. The rule behind the calls is not given here.

The subject of the assay is EBV lymphoblastoid cells (LCL) viability, plate reader. As to the kind of experiment: cytotoxicity in EBV lymphoblastoid cells, dose response, cytotoxicity control, cell-based, plate reader, cherry-picks, set 2 (AID 504882).
As for `CCCCC(=O)NC(c1ccc(Cl)cc1)c1ccc2cccnc2c1O` (stereo not drawn), the half-maximal activity concentration (AC50) (in general, the concentration at which the activity in the assay is half-maximal) is 3.65 µM.

Turning to `Cc1ccc(C(=O)N/N=C/c2c(O)ccc3ccccc23)cn1`, the AC50 is 17 µM.

Consider `COc1ccc(C(=O)NC(=S)NNC(=O)c2ccc3ccccc3n2)cc1`, for which the AC50 is 3.69 µM.

With `CCCCC(=O)NC(c1ccc(Cl)cc1Cl)c1ccc2cccnc2c1O` (stereo not drawn), the AC50 was 2.55 µM.

Consider `NC(=S)NN=Cc1nccc2c(C(F)(F)C(F)(F)C(F)(F)F)cccc12`, for which the AC50 was 0.452 µM.

Regarding `Cc1cc(S(=O)(=O)c2ccc(Cl)cc2)nc(S(=O)(=O)c2ccc(Cl)cc2)c1C#N`, the AC50 is 0.855 µM.

As for `CC(=O)c1ccc(-c2nc3c4ccccc4ccn3c2C(C)=O)o1`, the AC50 is 0.371 µM.

For the compound `O=C(Oc1c(Cl)cc(Cl)c2cccnc12)c1cccc([N+](=O)[O-])c1`, the AC50 was 18.8 µM.

With `S=C(NN=Cc1ccccn1)Nc1ccccn1`, the AC50 is 9.02 µM.

As to `Cc1onc(-c2ccccc2)c1C(=O)NC(=S)NNC(=O)c1ccc(O)cc1O`, the AC50 is > 19.5 µM (inactive).

Turning to `CCOC(=O)CC(NC(=O)C(Cc1ccc(N(CCCl)CCCl)cc1)NC(C)=O)C(=O)OCC` (stereo not drawn), the AC50 is 5.68 µM.

`COc1cccc(/C=N/Nc2nc3ccccc3[nH]2)c1O`: the AC50 is 4.42 µM.

On to `O=Cc1ccc(-c2cccs2)s1`, for which the AC50 was 11.8 µM.

For the compound `Cc1ccc2[nH]c(C(=O)N/N=C/c3ccccc3O)c(C)c2c1`, the AC50 is 3.05 µM.

Take `COc1ccc(-c2nc(-c3cccs3)no2)cc1`: the AC50 is > 19.5 µM (inactive).

For `COc1ccc(Cc2nnc(N/N=C/c3ccc(O)cc3)[nH]c2=O)cc1OC`, the AC50 is 4.05 µM.

Regarding `CCCC(=O)NC(c1cccc([N+](=O)[O-])c1)c1ccc2cccnc2c1O` (stereo not drawn), the AC50 is 3.51 µM.

Turning to `CC(=O)NC(c1cccs1)c1cc(F)c2cccnc2c1O` (stereo not drawn), the AC50 is 6.96 µM.

For `Cc1c(C(=O)Nc2nc(-c3ccccn3)cs2)oc2ccccc12`, the AC50 is 11 µM.

In the case of `C#Cc1cc(N2CCN(C(=O)c3ccoc3)CC2)n2nc(-c3cccc(Cl)c3)cc2n1`, the AC50 is 10.4 µM.

In the case of `O=C(/C=C1\NC2(CCCC2)Cc2ccccc21)C(=O)N/N=C/c1ccccc1O`, the AC50 was 18 µM.

Consider `O=S(=O)(c1ccccc1)N1CCN(c2cc(-c3ccccc3)nc3ncnn23)CC1`, for which the AC50 is > 19.5 µM (inactive).

In the case of `CCN(CC)S(=O)(=O)c1cccc(NC(=O)Nc2cccc(C(F)(F)F)c2)c1`, the AC50 is 9.7 µM.

On to `COc1ccc(C(=O)NC2CCCc3c2cnn3-c2cccc(C)c2C)c(OC)n1` (stereo not drawn), for which the concentration at half-maximal activity (AC50) is 1.22 µM.

Turning to `C/C(=N\NC(=O)c1cccc(Br)c1)c1ccccn1`, the AC50 is 0.803 µM.

In the case of `CCN(CC)C(=O)c1ccc(NC(=O)Nc2ccccc2F)cc1`, the AC50 is 2.63 µM.

As to `O=C(NC(c1ccc(Cl)cc1)c1cc(Cl)c2cccnc2c1O)c1cccnc1` (stereo not drawn), the AC50 was 4.72 µM.

Consider `O=C(CCl)N(c1ccc(Cl)cc1)c1c[nH]c2ccccc12`, for which the AC50 is 3.35 µM.

With `COc1ccccc1-c1nnc(Sc2nc([N+](=O)[O-])nn2C)o1`, the AC50 was 8.25 µM.

`C=CCn1c(C)c(C(C)=O)c(N2CCN(C(c3ccccc3)c3ccccc3)CC2)nc1=S`: the AC50 was > 19.5 µM (inactive).

On to `Clc1ccc(-n2nnnc2Sc2ncnc3sccc23)cc1`, for which the AC50 was 8.53 µM.

Regarding `COc1ccc(O)c(/C=N/Nc2nc(Nc3ccccc3)nc(-n3nc(C)cc3C)n2)c1`, the AC50 was 10.7 µM.

In the case of `O=C(Nc1nc(-c2ccccn2)cs1)c1ccc(Br)s1`, the AC50 was 1.29 µM.

As for `COc1ccc(C=C2CS(=O)(=O)CC(=Cc3ccc(OC)cc3)C2=O)cc1`, the AC50 was 0.675 µM.

On to `O=C(N/N=C/c1c(O)ccc2ccccc12)c1cccnc1`, for which the AC50 was 10.5 µM.

Turning to `CCC(=O)NC(c1cc(Cl)c2cccnc2c1O)C1CC1` (stereo not drawn), the AC50 was 6.08 µM.

For `CCc1cc(C(=O)Nc2ncccc2O)sc1C`, the AC50 is > 19.5 µM (inactive).

For the compound `COc1ccc(OCc2cccc(C(=O)NN)c2)cc1`, the AC50 was > 19.5 µM (inactive).

With `CCn1c2ccccc2c2cc(/C=N/n3c(-c4cc(C)[nH]n4)n[nH]c3=S)ccc21`, the AC50 was 6.59 µM.

Regarding `NC(=S)N/N=C/c1ncc(C(F)(F)F)cc1Cl`, the AC50 is 10.6 µM.

Take `Oc1cccc(C(Nc2nccs2)c2ccc3cccnc3c2O)c1` (stereo not drawn): the AC50 was 11.4 µM.

For the compound `CCn1c2ccccc2c2cc(/C=N/n3cnnc3)ccc21`, the AC50 is 10.7 µM.

Consider `S=C(NCCCN1CCOCC1)N1CCN(c2nc(-c3ccc(Cl)cc3)cs2)CC1`, for which the AC50 is 12.9 µM.

On to `Oc1ccc(C=NNC(=S)Nc2ccccc2)nc1`, for which the AC50 is 13 µM.

On to `CC(=O)NC(c1ccc2ccccc2c1)c1ccc2cccnc2c1O` (stereo not drawn), for which the AC50 is 1.93 µM.

Turning to `C=C(C(=O)c1ccccc1)C(CC(=O)c1ccccc1)c1ccccc1` (stereo not drawn), the AC50 is 3.79 µM.

For `O=[N+]([O-])c1ccc(O)c(/C=N/Nc2ncnc3c2cnn3-c2ccccc2)c1`, the AC50 is 4.55 µM.

Regarding `CCNc1ccc(Br)cc(C(=O)/C=C/c2ccccc2Cl)c1=O`, the AC50 was 15.3 µM.

For `CCn1c2ccccc2c2cc(/C=N/NC(=O)c3ccncc3)ccc21`, the AC50 was 3.31 µM.

In the case of `CCOc1ccc(C(=O)Nc2cc(C)ccn2)cc1`, the AC50 was 9.64 µM.

As to `Cc1cc(=O)[nH]c(N=N/C(=N/Nc2ccccc2C)c2ccccc2)n1`, the AC50 is 8.28 µM.

As for `C=CCNC(=S)N/N=C(\C)c1ccccn1`, the AC50 is 0.13 µM.

Turning to `NC(=S)NN=Cc1nccc2c(N)cccc12`, the AC50 is 1.04 µM.

Consider `CCOC(=O)c1cnc(-n2nc(C)cc2C)nc1NNc1cc(C)nc(-c2ccccc2)n1`, for which the AC50 was 3.73 µM.

On to `COc1ccccc1[C@]1(C)ON(c2ccccc2C(F)(F)F)C1=O`, for which the AC50 was 16.7 µM.

As for `Cc1[nH]n(-c2ccccc2)c(=O)c1/C=N/Nc1nncc(-c2ccccc2)n1`, the AC50 is 0.83 µM.

As to `N#Cc1c(Oc2ccc3ccccc3c2)sc(C(=O)c2ccccc2)c1N`, the AC50 was 20 µM.

With `CC(C)C(=O)NC(c1ccc(Cl)cc1Cl)c1ccc2cccnc2c1O` (stereo not drawn), the AC50 was 2.28 µM.

`Nc1ccn([C@@H]2O[C@H](CO)[C@@H](O)C2O)c(=O)n1` (stereo partly drawn): the AC50 is 1.1 µM.

As for `O=c1[nH]c(=O)n([C@H]2C[C@H](O)[C@@H](CO)O2)cc1C(F)(F)F`, the AC50 is 1.51 µM.

Regarding `Cc1oc2c(c1C(=O)c1ccc(Cl)cc1)C(=O)C(=O)c1ccccc1-2`, the AC50 is 5.51 µM.

With `Fc1ccc2[nH]c3c(N4CCSCC4)ncnc3c2c1`, the AC50 is 17.5 µM.

For the compound `O=C(N/N=C/c1c(O)ccc2ccccc12)c1ccc(Br)o1`, the AC50 is 6.22 µM.

With `COc1ccccc1-c1nc(-c2ccccn2)no1`, the AC50 was 10.8 µM.

For `CC(=NNC(=S)Nc1cccc(Cl)c1)c1ccccn1`, the AC50 is 0.138 µM.

Take `COc1cccc(/C=N/Nc2ncnc(Cl)c2N)c1O`: the half-maximal activity concentration (AC50) was 3.73 µM.

With `CCCCC(=O)NC(c1cccc([N+](=O)[O-])c1)c1ccc2cccnc2c1O` (stereo not drawn), the AC50 was 5.14 µM.

Regarding `O=[N+]([O-])c1c(Nc2cccc(O)c2)cc(Cl)c2nonc12`, the AC50 was 2.73 µM.

As to `O=C(CF)N(O)c1ccc(C=Cc2ccccc2)cc1`, the AC50 was 4.21 µM.

With `Oc1ccc2ccccc2c1N=Nc1ccccn1`, the AC50 was 4.54 µM.

`C=CCn1c(O)c(N=NC(=S)Nc2ccccc2F)c2ccccc21`: the AC50 is 10.2 µM.

Turning to `COc1ccc(/C=N/Nc2cc(C)nc3ccc(OC)cc23)c(OC)c1`, the concentration at half-maximal activity (AC50) was 3.47 µM.

In the case of `CC(=NNC(=S)N1CCN(c2ccccn2)CC1)c1nccs1`, the AC50 was 0.429 µM.
